Where two headings read alike, the source gives them in different places.
What was measured:
MRP1 = biological target: T1, MRP1 (Homo sapiens, UniProt P33527); test: MRP1-modulating activity in 2008/MRP1 cells (MTS); format: cell-based; conditions: no modulator; read-out: IC50 of DOX in 2008/MRP1, DMSO
T1 construct: expressed in transfected cells; host or cells: 2008/MRP1 (human ovarian cancer)
Method: (§1) The final volume in each well of the 96-well plate was 200 μL. The plate was then incubated for 5 days at 37 °C. The cell viability was determined using an MTS assay as reported previously.

P-gp [1] = biological target: T2, P-gp (Homo sapiens, UniProt P08183); test: Reversal of P-gp-mediated MDR in LCC6MDR cells (MTS cell viability, 5 days)
Method: To each well of a 96-well plate, 6500 cells of LCC6MDR were seeded in 180 μL supplemented medium. A 10 µL compound (FD18, 14a, FM04 or FM327) at different concentrations (0, 62.5, 125, 250, 500 and 1000 nM) was added to the well. […] The final volume in each well was 200 µL and the 96-well plate was incubated at 37 °C for 5 days. The cell viability was determined using the MTS assay as reported previously. The % of cell survival, IC50 of anticancer drugs towards the LCC6MDR and the EC50 of modulators were analyzed using nonlinear regression in Prism 5.0 (Prism version 5.0, GraphPad software, San Diego, CA, USA).

LCC6 cells = test: IC50 of anticancer drugs in wild-type LCC6 with or without FM04; format: cell-based, human; conditions: for IC50: Homo sapiens; for RF, LCC6 + DMSO: IC50 in LCC6MDR without FM04 / IC50 in LCC6; for RF, LCC6 + 1 μM FM04: IC50 in LCC6MDR without FM04 / IC50 in LCC6 with FM04
Excerpt: Table S1. IC50 of anticancer drugs in LCC6 and LCC6MDR and P-gp modulating activity of FM04.
fold): IC50 of an anticancer drug of LCC6MDR without FM04/IC50 of an anticancer of LCC6 with or without
FM04 or LCC6MDR with FM04. N = 2 - 8 independent experiment. The IC50 values were presented as mean ±
standard error mean. /: not determined.

P-gp [2] = biological target: T2, P-gp; test: Intracellular DOX accumulation assay in LCC6MDR cells
[3] = In vivo monitoring of FD18 and its metabolites in plasma after I.V. FD18; design: species or system SD rats; conditions: after FD18 5 mg/kg I.V.; for AUC(0-t) / Cmax / Tmax: Sprague-Dawley, rat, iv
Method: Figure 3 Proposed metabolism pathway of FD18 and its metabolites formed in vivo. (A) metabolism study of FD18 was conducted on human liver microsomes (HLM) and rat liver microsomes (RLM) in vitro. Chemical structure of the 3 metabolites was predicted by LC/QTOF-MS/MS and confirmed by the synthetic compounds (Figure 2E–J). The pathways for biotransformation of FD18 into FM04 was proposed. (B) plasma concentration profile of FD18 and the in vivo formation of metabolites M1, M2 and M3. After I.V. injection of FD18 (5 mg/kg) into […], plasma was collected at 10, 30, 60, 120, 240, 420 and 600 min, respectively. The concentration of FD18 at each time point was determined by UPLC-MS/MS. Its plasma concentration was further quantified with peak area ratio of FD18 against D7-18. […] In vivo formation of metabolites M1, M2 and M3 were monitored and quantified by UPLC-MS/MS with corresponding calibration curve of 14a, FM04 and FM327. Pharmacokinetic parameter AUC was calculated by the pharmacokinetic software-Summit® PK solutions 2.0 (Summit Research Service, Ashland, Wilmington, DE, USA).
FD18 stock solution was freshly prepared in 33% Cremophor EL, 33% ethanol and 33% saline at a concentration of 9.5 mg/mL. FD18 stock solution was then diluted with saline to form a 4 mg/mL working solution for animal injection. SD rats were intravenously (I.V.) administered with FD18 at 5 mg/kg (n = 3). Blood samples (approx. 300 μL) were taken via jugular vein at 10, 30, 60, 120, 240 and 420 min post-administration. Blood samples were centrifuged at 16,100× g for 10 min to obtain plasma. Plasma samples (50 µL) were spiked with 15 μL of internal standard (IS) (D7-NBn, 10 μg/mL). Two hundred microliter of methanol was added for protein precipitation. Samples were centrifuged at 16,100× g for 10 min prior to filtering by 0.22 μm syringe filter for UPLC-MSMS analysis.
The UPLC-MS/MS system consists of an Agilent 1260 infinity UPLC interfaced with a triple quadrupole mass spectrometer (Agilent 6460) equipped with an electrospray ionization source in positive mode. Zorbax Eclipse XDB-C8 (4.6 × 150 mm, 5 µM) was used for separation. The mobile phase for chromatographic separation consisted of methanol + 0.1% formic acid (solvent B) and Milli-Q water + 0.1% formic acid (solvent A) with gradient elution of 30% solvent B to 100% solvent B in 5 min. The elution condition was allowed for equilibrium from the 7th min onward. The analysis time for each injection was 13 min. The flow rate was 0.4 mL/min. The synthetic compound D7-NBn, the deuterated benzyl form of FD18, was used as the internal standard (IS) for the quantification of the three metabolites. Multiple reaction monitoring (MRM) was set to monitor the transitions of D7-NBn [M+H]^+, FD18 [M+H]^+, M1 [M+H]^+, M2 [M+H]^+ and M3 [M+H]^+ at 731.01 > 98.1 m/z, 724.01 > 91.1 m/z, 634.01 > 114 m/z, 416.01 > 91.1 m/z and 327.01 > 239 m/z, respectively. The coefficient of determination (R^2) for 14a, FM04 and FM327 were above 0.99. The dynamic range for the metabolites in the current setting is 78 ng/mL to 2.44 ng/mL.

P-gp [4] = biological target: T2, P-gp; design: expressed in transfected cells; host or cells: MDA435/LCC6MDR (human melanoma); method as in PMID 22320402; conditions: LCC6MDR; cited from earlier work
L929 = tested on: L929; design: method as in earlier work; conditions: mouse fibroblast cell line; read-out: Cytotoxicity IC50, L929; cited from earlier work
BCRP = biological target: T3, BCRP (Homo sapiens, UniProt Q9UNQ0); test: BCRP-modulating activity in HEK293/R2 cells (MTS); format: cell-based; conditions: no modulator; read-out: IC50 of Topotecan in HEK293/R2, DMSO
T3 construct: expressed in transfected cells; host or cells: HEK293/R2
T3 sequence (Q9UNQ0 1-655): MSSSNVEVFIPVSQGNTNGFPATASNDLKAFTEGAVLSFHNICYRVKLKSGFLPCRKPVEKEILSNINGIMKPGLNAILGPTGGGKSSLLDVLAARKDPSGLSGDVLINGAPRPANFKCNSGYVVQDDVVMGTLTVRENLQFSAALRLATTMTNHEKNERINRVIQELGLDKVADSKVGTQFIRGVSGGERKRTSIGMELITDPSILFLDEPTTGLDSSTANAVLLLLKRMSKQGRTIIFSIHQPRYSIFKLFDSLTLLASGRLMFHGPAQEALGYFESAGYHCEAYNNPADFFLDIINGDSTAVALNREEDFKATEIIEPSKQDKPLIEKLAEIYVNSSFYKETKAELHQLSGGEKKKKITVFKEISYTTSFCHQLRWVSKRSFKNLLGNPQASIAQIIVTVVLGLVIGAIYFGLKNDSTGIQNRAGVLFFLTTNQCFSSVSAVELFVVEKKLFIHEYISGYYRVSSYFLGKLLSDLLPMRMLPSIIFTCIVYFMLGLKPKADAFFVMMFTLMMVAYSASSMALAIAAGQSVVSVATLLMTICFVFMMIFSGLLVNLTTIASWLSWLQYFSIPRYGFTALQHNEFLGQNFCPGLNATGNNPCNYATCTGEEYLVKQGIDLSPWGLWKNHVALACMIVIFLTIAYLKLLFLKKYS
Method: as §1

[5] = oral co-administration; cited from earlier work
P-gp [6] = biological target: T2, P-gp; design: expressed in transfected cells; host or cells: MDA435/LCC6MDR (human melanoma); conditions: read-out: EC50 for reversing PTX resistance; cited from earlier work
[7] = LCC-6, wild-type LCC6, no modulator, read-out: IC50 of anticancer drug, LCC6 + DMSO

T2 sequence (P08183 whole entry): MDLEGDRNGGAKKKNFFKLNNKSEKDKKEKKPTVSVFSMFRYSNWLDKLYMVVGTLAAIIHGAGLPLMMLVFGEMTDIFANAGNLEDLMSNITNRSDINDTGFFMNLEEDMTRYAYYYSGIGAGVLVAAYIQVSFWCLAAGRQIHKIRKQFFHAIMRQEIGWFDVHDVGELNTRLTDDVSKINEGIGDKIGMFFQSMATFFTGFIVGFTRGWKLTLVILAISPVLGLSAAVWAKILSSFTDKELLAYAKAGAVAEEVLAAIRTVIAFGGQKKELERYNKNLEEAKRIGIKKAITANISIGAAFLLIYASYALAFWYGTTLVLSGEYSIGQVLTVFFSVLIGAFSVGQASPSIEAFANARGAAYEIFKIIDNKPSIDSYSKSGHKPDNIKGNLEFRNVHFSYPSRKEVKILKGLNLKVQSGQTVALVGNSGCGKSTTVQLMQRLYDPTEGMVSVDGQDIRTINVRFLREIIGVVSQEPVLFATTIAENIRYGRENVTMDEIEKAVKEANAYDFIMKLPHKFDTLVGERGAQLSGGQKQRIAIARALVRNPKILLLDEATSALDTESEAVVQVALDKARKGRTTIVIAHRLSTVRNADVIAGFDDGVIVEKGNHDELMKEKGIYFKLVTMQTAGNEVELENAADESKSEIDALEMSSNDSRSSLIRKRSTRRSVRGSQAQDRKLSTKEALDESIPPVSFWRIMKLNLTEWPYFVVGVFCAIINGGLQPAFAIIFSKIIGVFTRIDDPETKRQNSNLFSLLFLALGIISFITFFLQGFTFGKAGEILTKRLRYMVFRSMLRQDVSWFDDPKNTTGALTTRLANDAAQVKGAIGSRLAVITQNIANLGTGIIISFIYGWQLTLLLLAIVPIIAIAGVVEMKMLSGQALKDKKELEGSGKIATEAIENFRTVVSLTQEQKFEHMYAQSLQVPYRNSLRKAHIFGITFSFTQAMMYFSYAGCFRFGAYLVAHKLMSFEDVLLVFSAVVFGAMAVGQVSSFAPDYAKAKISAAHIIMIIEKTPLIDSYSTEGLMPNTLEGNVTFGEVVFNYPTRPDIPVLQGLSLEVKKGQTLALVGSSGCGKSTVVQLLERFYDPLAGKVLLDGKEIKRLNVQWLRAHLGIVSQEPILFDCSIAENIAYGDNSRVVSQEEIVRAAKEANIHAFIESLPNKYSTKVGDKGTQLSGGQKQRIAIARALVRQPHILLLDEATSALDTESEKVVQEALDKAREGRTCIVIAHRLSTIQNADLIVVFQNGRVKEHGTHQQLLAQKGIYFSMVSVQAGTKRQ
T1 sequence (P33527 whole entry): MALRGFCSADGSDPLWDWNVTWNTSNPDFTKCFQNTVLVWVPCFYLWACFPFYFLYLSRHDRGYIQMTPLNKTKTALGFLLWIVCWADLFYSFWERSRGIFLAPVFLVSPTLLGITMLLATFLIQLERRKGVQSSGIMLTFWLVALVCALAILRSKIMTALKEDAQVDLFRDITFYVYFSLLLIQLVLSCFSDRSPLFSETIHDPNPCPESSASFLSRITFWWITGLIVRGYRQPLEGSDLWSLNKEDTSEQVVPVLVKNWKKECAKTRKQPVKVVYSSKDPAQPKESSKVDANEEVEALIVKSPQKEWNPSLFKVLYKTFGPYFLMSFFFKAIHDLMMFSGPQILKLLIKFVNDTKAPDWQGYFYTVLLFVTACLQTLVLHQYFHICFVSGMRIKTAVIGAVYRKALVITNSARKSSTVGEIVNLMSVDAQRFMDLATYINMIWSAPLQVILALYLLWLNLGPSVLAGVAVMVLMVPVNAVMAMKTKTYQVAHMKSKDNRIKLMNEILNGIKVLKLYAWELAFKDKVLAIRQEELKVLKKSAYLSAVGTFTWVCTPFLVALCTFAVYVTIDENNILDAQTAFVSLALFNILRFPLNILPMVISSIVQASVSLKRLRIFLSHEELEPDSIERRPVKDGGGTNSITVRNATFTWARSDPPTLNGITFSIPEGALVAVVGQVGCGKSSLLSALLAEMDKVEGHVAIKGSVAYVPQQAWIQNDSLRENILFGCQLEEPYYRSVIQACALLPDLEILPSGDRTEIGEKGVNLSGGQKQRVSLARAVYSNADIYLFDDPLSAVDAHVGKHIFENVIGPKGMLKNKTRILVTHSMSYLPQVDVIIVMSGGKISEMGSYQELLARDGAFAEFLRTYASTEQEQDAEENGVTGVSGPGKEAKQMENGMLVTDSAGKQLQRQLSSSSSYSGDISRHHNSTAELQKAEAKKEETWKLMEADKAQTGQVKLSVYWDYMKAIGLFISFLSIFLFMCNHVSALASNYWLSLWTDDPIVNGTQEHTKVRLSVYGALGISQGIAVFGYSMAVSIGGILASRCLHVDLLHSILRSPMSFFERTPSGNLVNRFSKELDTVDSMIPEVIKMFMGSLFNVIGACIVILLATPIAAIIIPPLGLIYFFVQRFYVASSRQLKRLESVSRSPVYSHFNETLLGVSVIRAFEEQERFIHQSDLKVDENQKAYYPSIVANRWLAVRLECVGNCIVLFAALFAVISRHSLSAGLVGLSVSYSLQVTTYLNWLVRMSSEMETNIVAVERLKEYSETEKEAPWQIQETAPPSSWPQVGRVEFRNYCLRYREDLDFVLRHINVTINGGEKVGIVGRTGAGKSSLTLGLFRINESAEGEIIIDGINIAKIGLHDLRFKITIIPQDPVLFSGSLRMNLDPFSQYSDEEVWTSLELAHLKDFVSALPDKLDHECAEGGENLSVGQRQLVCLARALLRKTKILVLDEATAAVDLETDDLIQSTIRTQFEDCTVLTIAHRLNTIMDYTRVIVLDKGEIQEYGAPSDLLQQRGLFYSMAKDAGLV

COc1cccc2c1C(=O)c1c(O)c3c(c(O)c1C2=O)C[C@@](O)(C(=O)CO)C[C@@H]3O[C@H]1C[C@H](N)[C@H](O)[C@H](C)O1 [DOX, doxorubicin]
IC50 (MRP1): 616 ± 54.2 nM
RF, LCC6MDR + 1 μM FM04 (P-gp [1]): 25.2
RF, LCC6MDR + DMSO (P-gp [1]): 1.0
IC50 (LCC6 cells; [7]): 27 ± 4.6 nM
RF, LCC6 + DMSO (LCC6 cells): 38.6

O=c1cc(-c2ccc(OCCOCCN(CCOCCOc3ccc(-c4cc(=O)c5ccccc5o4)cc3)Cc3ccccc3)cc2)oc2ccccc12 [FD18]
RF (relative-fold) (P-gp [1]): > 68
EC50 (P-gp [1]; EC50 for P-gp modulation, range over PTX reversal and DOX accumulation in LCC6MDR): 116 to 148 nM
EC50 (P-gp [2]): 116 nM
AUC(0-t) [3]: 682 ng·h/mL
Transport substrate of P-gp (P-gp [4]): substrate of P-gp
IC50 (L929): 85000 ± 5000 nM

CC[C@@]1(O)C(=O)OCc2c1cc1n(c2=O)Cc2cc3c(CN(C)C)c(O)ccc3nc2-1 [Topotecan, topotecan]
IC50 (BCRP): 225 ± 32 nM

O=c1cc(-c2ccc(OCCOCCNCCOCCOc3ccc(-c4cc(=O)c5ccccc5o4)cc3)cc2)oc2ccccc12 [14a, 1,13-Bis[4′-(4H-chromen-4-on-2-yl)phenyl]-1,4,10,13-tetraoxa-7-azatridecane]
fold lower activity than FD18 in reversing PTX resistance (P-gp [1]): 2.1 fold
AUC(0-t) [3]: 78.9 ng·h/mL
Cmax [3]: 18 ng/mL
Tmax [3]: 50 min
Normalized AUC (systemic exposure relative to FD18) ([3]; listed as M1): 12%

CC[C@]1(O)C[C@H]2CN(CCc3c([nH]c4ccccc34)[C@@](C(=O)OC)(c3cc4c(cc3OC)N(C=O)[C@H]3[C@@](O)(C(=O)OC)[C@H](OC(C)=O)[C@]5(CC)C=CCN6CC[C@]43[C@@H]65)C2)C1 [Vincristine, vincristine]
RF, LCC6MDR + 1 μM FM04 (P-gp [1]): 68.0
RF, LCC6MDR + DMSO (P-gp [1]): 1.0
IC50 (LCC6 cells; [7]): 0.71 ± 0.32 nM
RF, LCC6 + DMSO (LCC6 cells): 39.3
RF, LCC6 + 1 μM FM04 (LCC6 cells): 21.5

CC[C@]1(O)C[C@@H]2CN(CCc3c([nH]c4ccccc34)[C@@](C(=O)OC)(c3cc4c(cc3OC)N(C)[C@H]3[C@@](O)(C(=O)OC)[C@H](OC(C)=O)[C@]5(CC)C=CCN6CC[C@]43[C@@H]65)C2)C1 [Vinblastine, vinblastine]
RF, LCC6MDR + 1 μM FM04 (P-gp [1]): 61.3
RF, LCC6MDR + DMSO (P-gp [1]): 1.0
IC50 (LCC6 cells; [7]): 0.38 ± 0.14 nM
RF, LCC6 + DMSO (LCC6 cells): 24.2
RF, LCC6 + 1 μM FM04 (LCC6 cells): 10.7

O=c1cc(-c2ccc(OCCOCCO)cc2)oc2ccccc12 [FM327, 2-(4-(2-(2-hydroxyethoxy)ethoxy)phenyl)-4H-chromen-4-one]
EC50 (P-gp [1]; EC50 needed for reversing MDR in LCC6MDR cells: PTX, LCC6MDR, PTX resistance): > 1000 nM
AUC(0-t) [3]: 49.1 ng·h/mL
Cmax [3]: 21 ng/mL
Tmax [3]: 50 min
Normalized AUC (systemic exposure relative to FD18) ([3]; listed as M3): 7%

CC(C)c1nc(CN(C)C(=O)N[C@H](C(=O)N[C@@H](Cc2ccccc2)C[C@H](O)[C@H](Cc2ccccc2)NC(=O)OCc2cncs2)C(C)C)cs1 [ritonavir]
fold enhancement of the AUC of oral PTX vs a single oral dose of PTX [5]: 2.5 fold

COc1cccc2c1C(=O)c1c(O)c3c(c(O)c1C2=O)C[C@@](O)(C(C)=O)C[C@@H]3O[C@H]1C[C@H](N)[C@H](O)[C@H](C)O1 [Daunorubicin, daunorubicin]
RF, LCC6MDR + 1 μM FM04 (P-gp [1]): 6.3
RF, LCC6MDR + DMSO (P-gp [1]): 1.0
IC50 (LCC6 cells; LCC-6, read-out: IC50 of anticancer drug, LCC6 + DMSO): 22.1 ± 2.2 nM
RF, LCC6 + DMSO (LCC6 cells): 60.5

O=C1c2c(O)ccc(O)c2C(=O)c2c(NCCNCCO)ccc(NCCNCCO)c21 [Mitoxantrone, mitoxantrone]
RF, LCC6MDR + 1 μM FM04 (P-gp [1]): 17.3
RF, LCC6MDR + DMSO (P-gp [1]): 1.0
IC50 (LCC6 cells; [7]): 37.4 ± 11.7 nM
RF, LCC6 + DMSO (LCC6 cells): 28.1

O=c1cc(-c2ccc(OCCOCCOCCOCCOc3ccc(-c4cc(=O)c5ccccc5o4)cc3)cc2)oc2ccccc12 [compound 61]
RF (relative-fold) (P-gp [1]): > 28

O=c1cc(-c2ccc(O)cc2)oc2cc(O)cc(O)c12 [apigenin]
RF (relative-fold) (P-gp [1]): 1.0
EC50 (P-gp [6]): > 10000 nM

Source: publication PMC9739180, “Discovery of a Flavonoid FM04 as a Potent Inhibitor to Reverse P-Glycoprotein-Mediated Drug Resistance in Xenografts and Improve Oral Bioavailability of Paclitaxel” (International Journal of Molecular Sciences, 2022)
